Values quoted from earlier work as cited in patent US20070203190A1, “Hydroxylamines and derivatives for the inhibition of complement activation” (priority 2006, published 2007).

B1: CD59: blocks assembly of the MAC; proposed as a potential therapeutic agent (protein, UniProt P13987 26-102, looked up)
CD59 glycoprotein: LQCYNCPNPTADCKTAVNCSSDFDACLITKAGLQVYNKCWKFEHCNFNDVTTRLRENELTYYCCKKDLCNFNEQLEN

How the values were obtained:
[1] = system: complement activation; settings: in vivo animal models
[2] = target: MAC

Row | Molecule | suppression of complement activation [1] | activity in vitro [2]
1 | sCR1: a recombinant form of complement receptor 1 known as soluble complement receptor 1 | suppress complement activation | –
2 | B1 | – | limited activity
